Test results published in paper PMC10835127, “Viruses traverse the human proteome through peptide interfaces that can be biomimetically leveraged for drug discovery” (Proceedings of the National Academy of Sciences of the …, 2024).
In brackets after ≈: the same amount, converted by molar mass. Like-named read-outs stand apart in the source and are kept apart here.

Tests used:
[1] = Cryopreserved hepatocyte stability, mouse; type: in vitro ADME; settings: cryopreserved hepatocytes, murine hepatocytes, read-out: CLint mHep
Description: (§1) Cryopreserved hepatocyte stability
(§2) Tested compounds (1 μM) were incubated with human cryopreserved hepatocytes (pool of 5) (IVT Celsis) and mouse cryopreserved hepatocytes (IVT Celsis). Hepatocytes (1, 0.5 or 0.25 x10^6 cells/mL, Williams’ Medium E (WME) with 4 mM L-glutamine and 2 mM magnesium sulphate) containing tested compound (final substrate concentration 1 μM; final DMSO concentration 0.25 %) were preincubated at 37 °C. The final incubation volume was 500 μl. 3 species-specific control compounds were included with each species. At 7 time points (0, 10, 20, 40, 60, 90, and 120 min), reactions were stopped by transferring 50 μl of the incubation mixture into 0.5 μM carbamazepine in cold acetonitrile. Tested compound concentrations were analyzed by LC-MS/MS and the resulting data were used to determine the half-life and intrinsic clearance of the compound in each species. […]

PK parameters in mice = type: in vivo, male Swiss (CD-1) mice; settings: male, Swiss (CD-1), plasma, mouse
Description: PK parameters and tissue distribution in mice
The pharmacokinetic profiles of the tested compounds were evaluated in male Swiss (CD-1) mice around 5-6 weeks old (3 animals per sampling time). […]
0.2 % Tween 80 in water. Blood samples were collected (0.25 mL) from the sinus retro-orbital […]
24 hr for p.o. route. The blood samples were immediately centrifuged at 2500 rpm at +4 °C, and the plasma was stored at −80 °C. 50 μL of plasma sample was taken and 150 μL of acetonitrile was added. After protein precipitation, analysis of the molecule was performed using LC-MS/MS to determine plasma compound concentration. For liver and lung collection, 3 animals per group were involved and sampled after 2 hr and 24 hr upon 20 mg/kg p.o. administration. Animals were perfused with around 10 mL of saline solution directly into the heart to extract the maximal blood sample from the liver and the lung. Animals were then sacrificed by cervical dislocation and liver

[2] = Cryopreserved hepatocyte stability, human; type: in vitro ADME; settings: cryopreserved hepatocytes, read-out: CLint hHep
Description: as §1, §2

influenza A H1N1 virus = test: microbe, parasite or virus in culture
[3] = Plasma protein binding by equilibrium dialysis, murine; type: in vitro ADME; settings: mouse, read-out: PPB (% bound)
Description: The free and bound fractions of the tested compounds in mouse and human plasma were determined by equilibrium dialysis using a 96-well Teflon dialysis unit (HTDialysis plate complete unit, HT Dialysis, USA). The HTDialysis plate complete unit consists of a 96-well plate with wells vertically bisected by a semipermeable membrane (membranes strips 12 to 14 kDa) creating two chambers. A 125 μL aliquot of plasma containing tested compound at 10 μM was placed on one side and 125 μL of Dulbecco‘s phosphate buffered saline (D-PBS) on the other. The plate was incubated at 37 °C for 6 hr under gentle agitation. Then, samples from both plasma and buffer compartment were analyzed by a LC-MS/MS method to measure the free fraction and the bound fraction to the plasma proteins. […]

Kinetic solubility = type: physicochemical; settings: PBS pH 7.4 buffer, pH 7.4, aqueous buffer, kinetic from dmso stock
Description: 10 mM DMSO Stock solutions of tested compounds were distributed into filtration plate (Multiscreen Durapore 0.45µm) containing PBS pH 7.4 buffer to a final maximum concentration of 130 μM (1.3 % DMSO/buffer). Solutions or suspensions were shaken for 30 min at room temperature. The samples were filtered under vacuum into a collection plate and diluted 50 % with ACN for UV analysis. Quantification was performed against a Reference plate containing the same tested compounds fully solubilized in ACN/PBS buffer 1:1. Reference and Sample plates were analyzed by UPLC/UV-MS using a generic UPLC method. […]

[4] = Microsomal stability, mouse liver microsomes; type: in vitro ADME; settings: male, CD-1, mouse, pH 7.4; murine liver microsomes; read-out: CLint mLM
Description: (§3) Tested compounds (1 μM) were incubated with pooled human liver microsomes (Xenotech; pooled male and female) and pooled mouse liver microsomes (Xenotech; male CD-1 mice).
(§4) Microsomes (final protein concentrations of 0.25 and 0.5 mg/ml, 0.1 M phosphate buffer pH 7.4) containing tested compound (final substrate concentration 1 μM; final DMSO concentration 0.25 %) were preincubated at 37 °C prior to the addition of NADPH (final concentration 1 mM) to initiate the reaction. The final incubation volume was 200 μl. 3 species-specific control compounds were included with each species. At 5 time points (0, 5, 10, 20, and 40 min), reactions were stopped by transferring 50 μl of the incubation mixture into 0.5 μM carbamazepine in acetonitrile. Tested compound concentrations were analyzed by LC-MS/MS and the resulting data were used to determine the half-life and intrinsic clearance of the compound in each

[5] = Microsomal stability, human liver microsomes; type: in vitro ADME; settings: both sexes, pH 7.4, read-out: CLint hLM
Description: as §3, §4

[6] = tested on: diet-induced obese model of NASH; test: NASH mouse model (AMLN diet-induced obese); type: in vivo, C57BL/6JRj mice; settings: oral, 8 wk; dEF3122 twice daily 7 or 20 mg/kg, OCA once daily 7 mg/kg; vs vehicle
Description: Fig. 6. Effect of the lead compound in a diet-induced obese model of NASH. Mice fed with a high fat, high fructose, and cholesterol supplemented diet for 38 wk were then treated in the last 8 wk with vehicle, dEF3122, or OCA (obeticholic acid) at indicated concentrations (n = 12 animals per group). (A and B) Histopathological mean score changes between the beginning and end of the treatment for liver portal inflammation (A) and liver portal fibrosis (B) are shown with representative stained liver sections of hematoxylin and eosin (H&E) and picrosirius red stains, respectively. (C–E) (C) Areas of kidney fibrosis at the end of the treatment are shown as % of the total area of the selected fields with representative sections of the kidney stained with picrosirius red. (D) % CD3 and (E) % F4/80 positive areas in kidneys with representative sections of CD3 and F4/80 immunostainings. *P < 0.05, **P < 0.01, and ***P < 0.001 from the T test with a preliminary nonsignificant Shapiro–Wilk test or from Wilcoxon signed–rank test otherwise.
Five-week-old male C57BL/6JRj mice were fed either chow diet or AMLN diet (40% total fat kcal of which 18.5% were trans-fat kcal, 20% fructose, and 2% cholesterol). This diet was maintained for 30 wk prior to study initiation. Three weeks prior to study initiation, liver biopsies were taken, and animals with steatosis grade <2 and fibrosis stage <1 were excluded from the study. Prior to the first administration of the test compound, stratified randomization of mice into treatment groups was performed according to collagen 1a1 (IHC) morphometry from the week 3 biopsies. Each treatment group consisted of 12 mice. For a total of 8 wk, compound dEF3122 was administered orally, twice daily at a concentration of 7 mg/kg or 20 mg/kg. OCA was administered orally, once daily at a concentration of 7 mg/kg. Animals were killed at the end of the treatment, and livers and kidneys were collected. […]
NASH histopathology and immunochemistry
Livers were fixed in 10 % neutral buffered formalin and paraffin-embedded; and sections were stained with H&E and picrosirius red to analyze their morphology. Histopathological analysis was performed by a pathologist blinded to the study. Fibrosis was evaluated by quantification of the picrosirius red positive areas. Inflammation was graded by counting the H&E positive inflammatory foci per field.
Kidneys were fixed in 4 % PFA and paraffin embedded. 4-μm sections were stained with picrosirius red. Images were acquired using a digital slide scanner (Nanozoomer S210 Digital Slide Scanner, Hamamatsu). Renal lesions were blindly examined by a renal pathologist. The extent of interstitial fibrosis was quantified using Image J software (NIH) on Sirius red scanned colored sections. In short, at least 20 random selected fields (original magnification, ×200) across the kidney cortex were analyzed per each kidney section, and the results were expressed as percentages of the total area of the selected fields.
For immunohistochemistry, 4-µm sections of paraffin-embedded kidneys were submitted for appropriate antigen retrieval by high pressure heating in a solution of Tris EDTA Tween or in a citrate solution. Then, sections were then incubated overnight at 4°C with the following antibodies: rabbit monoclonal anti-CD3 (Abcam, 1:100) and rat monoclonal anti- F4/80 (Biorad, 1:100). After washing, sections were incubated with appropriate amplification secondary antibody: biotin-coupled anti-rabbit (GE Healthcare) for CD3 and biotin-coupled anti-rat (Vector Laboratories) for F4/80, and then incubated with streptavidin coupled HRP (Southern). At the end, DAB (DAKO) staining was used to detect HRP. For quantification of CD3+ and F4/80+ renal cells, the degrees of cellular infiltrate were automatically quantified using ImageJ software (NIH) and expressed as a percentage of the surface area of the positive staining per field, in at least 10 random fields perp

[7] = H1N1, A549, read-out: IC50 for the inhibition of influenza virus replication

SMILES	fraction unbound at 6 h, 10 µM [3]	solubility kinetic at 30 min (Kinetic solubility)	microsomal CLint at 1 µM [4]	microsomal CLint at 1 µM [5]	IC50 (influenza A H1N1 virus; [7])	other results
O=C(Nc1scc(C2CCc3ccccc3C2)c1C(=O)O)c1ccccc1 (racemic) [dEF2905]	0.001	48 µM (≈ 18.1 µg/mL)	29 µL/min/mg	–	–	hepatocyte CLint at 1 µM [1]: < 5 µL/min/1e6 cells; half-life (PK parameters in mice; iv 0.25 mg/kg, read-out: T1/2 iv (converted)): 228 min; Cmax (PK parameters in mice; po 2 mg/kg (dose for AUC)): 1140 ng/mL; bioavailability (PK parameters in mice; po 2 mg/kg, iv 0.25 mg/kg): 33%; hepatocyte CLint at 1 µM [2]: 65 µL/min/1e6 cells; IC50 (influenza A H1N1 virus; H1N1, A549, read-out: Neuraminidase activity assay IC50): 18 nM
COc1ccc(C(=O)Nc2sc3c(c2C(=O)O)CCC(C(C)(C)C)C3)cc1 (stereo not drawn) [dEF2665]	0.001	< 5 µM	50 µL/min/mg	38 µL/min/mg	150 nM	–
CC[C@H]1[C@@H](O)[C@@H]2[C@H](CC[C@]3(C)[C@@H]([C@H](C)CCC(=O)O)CC[C@@H]23)[C@@]2(C)CC[C@@H](O)C[C@@H]12 [OCA, obeticholic acid, reference compound]	–	–	–	–	–	liver portal fibrosis [6]: significantly reduced portal fibrosis; liver portal inflammation [6]: failed to alleviate portal inflammation
CCOC(=O)c1c(NC(=O)C2CCCCC2C(=O)O)sc2c1CCC(C(C)(C)C)C2 (stereo not drawn) [dEF2586]	–	173 µM (≈ 75.4 µg/mL)	–	–	3000 nM	–
O=C(Nc1ccc(Cl)cc1)c1c(NC(=O)C2CCCCC2C(=O)O)sc2c1CCC2 (stereo not drawn) [dEF384]	< 0.01	74 µM (≈ 33.1 µg/mL)	< 20 µL/min/mg	< 14 µL/min/mg	5000 nM	half-life (PK parameters in mice; iv 0.9 mg/kg, read-out: T1/2 iv (converted)): 64.8 min; Cmax (PK parameters in mice; po 10 mg/kg): 31300 ng/mL; bioavailability (PK parameters in mice; po 10 mg/kg, iv 0.9 mg/kg): 71%; half-life (PK parameters in mice; po 10 mg/kg, read-out: T1/2 po (converted)): 104 min
